# Reference: patent publication US8088806B2 (Achillion Pharmaceuticals, Inc., priority 2005, dated 2012)
# Tested on: HCV replicon
# Experiment: Replicon based assay of HCV replication inhibition (NPT ELISA)
# Type: cell-based, Hepatitis C virus
# Settings: Hepatitis C virus, Huh-7, 72 h, Table I; Huh-7 HCV replicon-containing cells, three days; read-out: Activity
# Summary of the method: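 Huh-7 cells carrying a bicistronic HCV replicon (neo, EMCV-IRES-driven NS3–NS5B) treated overnight after seeding with usually 6 concentrations, 10 to 0.03 micromolar, for three days at 37° C without G418. Replication read as NPT level by captured ELISA; matched-DMSO wells and interferon alpha as controls.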
row,Compound,EC50 [nM]
1,"CCCCCOc1ccc(Nc2nc(-c3cccnc3)cs2)cc1 [compound 85, N-(4-(pentyloxy)phenyl)-4-(pyridin-3-yl)thiazol-2-amine]",< 1000
2,"Clc1ccc(-c2cc(-c3csc(Nc4cccc(Oc5ccccc5)c4)n3)on2)cc1Cl [compound 189, 4-(3-(3,4-dichlorophenyl)isoxazol-5-yl)-N-(3-phenoxyphenyl)thiazol-2-amine]",> 10000
3,"N#Cc1cccc(Nc2nc(-c3ccc(F)cc3F)cs2)c1 [compound 57, 3-(4-(2,4-difluorophenyl)thiazol-2-ylamino)benzonitrile]",> 10000
4,"c1ccc(-c2ccc(CNc3nc(-c4cccnc4)cs3)cc2)cc1 [compound 78, N-(4-phenyl-benzyl)-4-(pyridin-3-yl)thiazol-2-amine]",> 10000
5,"O=C(Nc1ccc(Cl)c(Cl)c1)c1csc(-c2cccnc2)n1 [compound 125, N-(3,4-dichlorophenyl)-2-(pyridin-3-yl)thiazole-4-carboxamide]",> 10000
6,"c1cncc(-c2csc(Nc3ccc4c(c3)Cc3ccccc3-4)n2)c1 [compound 104, N-(9H-fluoren-7-yl)-4-(pyridin-3-yl)thiazol-2-amine]",1000 to 10000

# Same assay, conditions: Hepatitis C virus, Huh-7, 72 h, Table III; Huh-7 HCV replicon-containing cells, three days; read-out: Activity
row,Compound,EC50 [nM]
1,"CCCCCCCCOc1ccc(Nc2nc(-c3ccc4c(c3)SCC(=O)N4)cs2)cc1C(F)(F)F [compound 669, 7-(2-(3-(trifluoromethyl)-4-(octyloxy)phenylamino)thiazol-4-yl)-2H-benzo[b][1,4]thiazin-3(4H)-one]",< 1000
2,"CCCCCCCCOc1ccc(Nc2nc(-c3ccc(N)nc3)cs2)cc1 [compound 685, 5-(2-(4-(octyloxy)phenylamino)thiazol-4-yl)pyridin-2-amine]",< 1000
3,"CCCCCCCCN(C)c1ccc(Nc2nc(-c3cnc(OC)nc3)cs2)cc1C(F)(F)F [compound 689, 2-(trifluoromethyl)-N^4-(4-(2-methoxypyrimidin-5-yl)thiazol-2-yl)-N^1-methyl-N-octylbenzene-1,4-diamine]",< 1000
4,"CCCCCCCCOc1ccc(Nc2nc(-c3cnc(NC(C)=O)c(C)c3)cs2)cc1 [compound 688, N-(5-(2-(4-(octyloxy)phenylamino)thiazol-4-yl)-3-methylpyridin-2-yl)acetamide]",1000 to 10000

# Same assay, conditions: Hepatitis C virus, read-out: Activity
row,Compound,EC50 [nM]
1,"CCCCCCCCOc1cc([N+](=O)[O-])c(Nc2nc(-c3cccnc3)c([N+](=O)[O-])s2)cc1C(F)(F)F [compound 788, N-(5-(trifluoromethyl)-2-nitro-4-(octyloxy)phenyl)-5-nitro-4-(pyridin-3-yl)thiazol-2-amine]",1000 to 10000

# Same assay, conditions: Hepatitis C virus, replicon based assay of HCV replication inhibition; Table II; read-out: Activity
row,Compound,EC50 [nM]
1,"O=C(O)Cc1ccc(-c2csc(Nc3ccc(OC4CCCC4)c(C(F)(F)F)c3)n2)s1 [compound 247, 2-(5-(2-(4-(cyclopentyloxy)-3-(trifluoromethyl)phenyl-amino)-thiazol-4-yl)thiophen-2-yl)acetic acid]",< 1000
2,"CCCCCOc1ccc(Nc2nc(CN3CCCC(C(=O)O)C3)cs2)cc1F (stereo not shown) [compound 293, 1-((2-(3-fluoro-4-(pentyloxy)phenylamino)thia-zol-4-yl)methyl)piperidine-3-carboxylic acid]",1000 to 10000
3,"NC(=O)c1cc(-c2csc(Nc3ccc(OCC4CC4)c(C(F)(F)F)c3)n2)ccc1O [compound 256, 5-(2-(4-(cyclopropylmethoxy)-3-(trifluoromethyl)phenyl-amino)thiazol-4-yl)-2-hydroxybenzamide]",< 1000
4,"CCCCCCCCOc1ccc(Nc2nc(-c3cncnc3)cs2)cc1 [compound 507, N-(4-(octyloxy)phenyl)-4-(pyrimidin-5-yl)thiazol-2-amine]",< 1000
5,"CCCCCCCc1ccc(Nc2nc(-c3cccnc3)cs2)cc1 [compound 483, N-(4-heptylphenyl)-4-(pyridin-3-yl)thiazol-2-amine]",< 1000
6,"CCCCCOc1ccc(Nc2nc(CN3CCC(CO)CC3)cs2)cc1F [compound 292, (1-((2-(3-fluoro-4-(pentyloxy)phenylamino)thia-zol-4-yl)methyl)piperidin-4-yl)methanol]",1000 to 10000
7,"COc1ccc(OC)c(Nc2ncc(-c3cccs3)s2)c1 [compound 440, N-(2,5-dimethoxyphenyl)-5-(thiophen-2-yl)thiazol-2-amine]",1000 to 10000
8,"CCCCCCCCOc1ccc(Nc2nc(-c3cccs3)cs2)cc1 [compound 360, N-(4-(octyloxy)phenyl)-4-(thiophen-2-yl)thiazol-2-amine]",< 1000
9,"CCCCCCOc1ccc(Nc2nc(-c3ccc(C)nc3)cs2)cc1 [compound 455, N-(4-(hexyloxy)phenyl)-4-(6-methylpyridin-3-yl)thiazol-2-amine]",< 1000
10,"CCCCCCCCOc1ccc(Nc2nc(CN3CCC(CO)CC3)cs2)cc1 [compound 322, (1-((2-(4-(octyloxy)phenylamino)thia-zol-4-yl)methyl)piperidin-4-yl)methanol]",1000 to 10000
11,"CCCCCOc1ccc(Nc2nc(-c3ccc4[nH]c(=O)oc4c3)cs2)cc1C(F)(F)F [compound 407, 6-(2-(3-(trifluoromethyl)-4-(pentyloxy)phenylamino)thia-zol-4-yl)benzo[d]oxazol-2(3H)-one]",< 1000
12,"FC(F)(F)c1cc(Nc2nc(-c3cccnc3)cs2)ccc1OCC1CC1 [compound 240, N-(4-(cyclopropylmethoxy)-3-(trifluoromeethyl)phenyl)-4-(pyridin-3-yl)thiazol-2-amine]",< 1000
13,"CCCCCCCCOc1ccc(Nc2nc(CN3CCC(C(N)=O)CC3)cs2)cc1 [compound 315, 1-((2-(4-(octyloxy)phenylamino)thia-zol-4-yl)methyl)piperidine-4-carboxammide]",1000 to 10000
14,"CCCCCCCOc1ccc(Nc2nc(-c3ccc(F)cc3)cs2)cc1 [compound 420, 4-(4-fluorophenyl)-N-(4-(heptyloxy)phenyl)thiazol-2-amine]",< 1000
15,"CCCCCCCOc1ccc(Nc2nc(-c3c[nH]c4ccccc34)cs2)cc1 [compound 398, N-(4-(heptyloxy)phenyl)-4-(1H-indol-3-yl)thiazol-2-amine]",< 1000
16,CC(=O)OCCCCCCN(C)c1ccc(Nc2nc(-c3ccc(F)cc3)cs2)cc1C(F)(F)F [compound 467],> 10000
17,"CCCCCCCCN(C)c1ccc(Nc2nc(Cc3cccnc3)cs2)cc1 [compound 503, N^1-methyl-N^1-octyl-N^4-(4-((pyridin-3-yl)methyl)thiazol-2-yl)benzene-1,4-diamine]",> 10000
18,CC(=O)OCCCCCCN(C)c1ccc(Nc2nc(-c3cccnc3)cs2)cc1C(F)(F)F [compound 465],1000 to 10000

# Same assay, conditions: Hepatitis C virus, replicon based assay of HCV replication inhibition; Table IV; read-out: Activity
row,Compound,EC50 [nM]
1,"O=C(c1ccccc1)c1cccc(Nc2nc(-c3cccnc3)cs2)c1 [compound 760, (3-(4-(pyridin-3-yl)thiazol-2-ylamino)phenyl)(phenyl) methanone]",> 10000
2,"N#Cc1sccc1-c1csc(Nc2ccc(OCC3CCCCC3)c(F)c2)n1 [compound 729, 3-(2-(4-(cyclohexylmethoxy)-3-fluorophenylamino)thiazol-4-yl)thiophene-2-carbonitrile]",< 1000
3,"CCN(CC)CCOC(=O)c1ccc(Nc2nc(-c3cccnc3)cs2)cc1 [compound 758, 2-(diethylamino)ethyl 4-(4-(pyridin-3-yl)thiazol-2-ylamino)benzoate]",> 10000
4,"CCCCCCCCOc1ccc(Nc2nc(-c3ccsc3Cl)cs2)cc1C(F)(F)F [compound 812, 4-(2-chlorothiophen-3-yl)-N-(3-(trifluoromethyl)-4-(octyloxy)phenyl)thiazol-2-amine]",< 1000
5,"CCCCCCCCOc1ccc(Nc2nc(-c3cccnc3)c([N+](=O)[O-])s2)cc1C(F)(F)F [compound 787, N-(3-(trifluoromethyl)-4-(octyloxy)phenyl)-5-nitro-4-(pyridin-3-yl)thiazol-2-amine]",1000 to 10000
6,"FC(F)(F)c1cccc(Nc2nc(-c3cccnc3)cs2)c1 [compound 908, N-(3-(trifluoromethyl)phenyl)-4-(pyridin-3-yl)thiazol-2-amine]",< 1000
7,"Fc1cc(Nc2nc(-c3ccc(-c4csnn4)cc3)cs2)ccc1OCC1CCCCC1 [compound 726, 4-(4-(1,2,3-thiadiazol-4-yl)phenyl)-N-(4-(cyclohexylmethoxy)-3-fluorophenyl)thiazol-2-amine]",1000 to 10000
8,"Cc1ccc2nc(Nc3nc(-c4cccnc4)cs3)sc2c1 [compound 794, 6-methyl-N-(4-(pyridin-3-yl)thiazol-2-yl)benzo[d]thiazol-2-amine]",> 10000
9,"FC(F)(F)c1cccc(-c2csc(Nc3ccc(OCC4CCCCC4)c(C(F)(F)F)c3)n2)c1 [compound 771, N-(4-(cyclohexylmethoxy)-3-(trifluoromethyl)phenyl)-4-(3-(trifluoromethyl)phenyl)thiazol-2-amine]",< 1000
10,"FC(F)(F)c1cc(Nc2nc(-c3cccnc3)cs2)ccc1OCCCCc1cccs1 [compound 799, N-(4-(4-(thiophen-2-yl)butoxy)-3-(trifluoromethyl)phenyl)-4-(pyridin-3-yl)thiazol-2-amine]",< 1000
11,"Brc1ccc(Nc2nc(-c3cccnc3)cs2)nc1 [compound 739, 5-bromo-N-(4-(pyridin-3-yl)thiazol-2-yl)pyridin-2-amine]",> 10000
12,"Cc1ccc(C#CCCOc2ccc(Nc3nc(-c4cccnc4)cs3)cc2C(F)(F)F)cc1 [compound 948, N-(4-(4-p-tolylbut-3-ynyloxy)-3-(trifluoromethyl)phenyl)-4-(pyridin-3-yl)thiazol-2-amine]",< 1000
13,"Nc1sc(Nc2ccc(OCc3ccccc3)cc2)nc1-c1ccc(F)cc1 [compound 858, N^2-(4-(benzyloxy)phenyl)-4-(4-fluorophenyl)thiazole-2,5-diamine]",1000 to 10000
14,"CCCCCCCCOc1ccc(Nc2nc(-c3cccnc3)c(N)s2)cc1C(F)(F)F [compound 923, N^2-(3-(trifluoromethyl)-4-(octyloxy)phenyl)-4-(pyridin-3-yl)thiazole-2,5-diamine]",< 1000
